The results in this text go back to patent US12024571B2, “Anti-erythropoietin receptor peptide” (Epo-Med Inc., priority 2018, dated 2024).

Bridge positions count the residues as written; N and C are the ends. Square brackets hold non-standard residues; d marks the D form. Peptide text beside a SMILES is read from it. * marks the point of attachment. Ala(benzothiazol-2-yl) = N[C@@H](Cc1nc2ccccc2s1)C(=O)O; Propionyl = CCC(=O)*

Data set [1] relates to human pancreatic cancer derived AsPC-1 cells. Kind of data set: Tumor growth in AsPC-1 cancer-bearing nude mouse model. It counts as in vivo. The conditions noted are these: intraperitoneal; for antitumor effect (relative tumor volume): total 0.2 mg/day, 3 times a week for 2 weeks, FIG. 40. The procedure: (§1) Human pancreatic cancer derived AsPC-1 cells (ECACC, 96020930) were cultured and collected in the same manner as Example 3, suspended in the RPMI-1640 medium described above comprising 10% Matrigel (BD Bioscience, 354234), and transplanted subcutaneously to the right side on the back of a 6-week-old male nude mouse (SLC, BALB/cSlc-nu/nu) (5×10^6/0.1 mL/mouse). The length (L) and width (W) of the tumor were measured using a digital caliper. When the tumor volume (V) calculated from the formula V=L×W^2/2 reached about 150 to 200 mm^3, the mice were separated into groups and administered with test compounds (total of 8 compounds including GT-11263). Saline was administered to a control group. The compounds were administered intraperitoneally (0.1 mL/mouse, 3 to 5 mice/test compound) 3 times daily (one hour interval, a total of 0.2 mg/day), 3 times a week for 2 weeks. The tumor size and body weight were measured twice a week to monitor the status of tumor growth and the effect of the administration of test compounds.
In the same manner as Example 5, human pancreatic cancer derived AsPC-1 cells were transplanted subcutaneously to the right side on the back of a 6-week-old male nude mouse (SLC, BALB/cSlc-nu/nu) (5×10^6/0.1 mL/mouse). The length (L) and width (W) of the tumor were measured using a digital caliper. When the tumor volume (V) calculated from the formula V=L×W^2/2 reached about 150 to 200 mm^3, the mice were separated into groups and administered with test compounds (GT-11269, GT-11309, and GT-11350). Saline was administered to a control group. The compounds were administered intraperitoneally (0.1 mL/mouse, 5 mice/test compound) 3 times daily (one hour interval, a total of 0.5 mg/day), twice a week for 4 weeks. The tumor size and body weight were measured twice a week to monitor the effect of the administration of test compounds (FIG. 45).
(§2) In the same manner as Example 5, human pancreatic cancer derived AsPC-1 cells were transplanted subcutaneously to the right side on the back of a 6-week-old male nude mouse (SLC, BALB/cSlc-nu/nu), and when the tumor volume (V) reached about 150 to 200 mm^3, the mice were separated into groups and administered with test compounds (GT-11350). Saline was administered to a control group. The compounds were administered intraperitoneally (0.1 mL/mouse) 3 times daily (one hour interval, a total of 0.1 mg, 0.2 mg, or 0.4 mg/day), twice a week for 4 weeks. The tumor size and body weight were measured twice a week to monitor the effect of the dose of test compounds (FIG. 49).
as §2, with “of” for “of 0.1 mg,”, “mg/day)” for “mg,”, “once daily (0.2” for “0.4”, “administration” for “dose”, “compounds.” for “compounds (FIG. 49).”

Data set [2] deals with human liver cancer derived HepG2 cells. Kind of data set: Lethal effect of synthetic peptides on HepG2 cells (Trypan blue positive cell count). The data set is classed as cell-based. The conditions noted are these: 120, 60, 30 or 15 μM, 24 hours; FIGS. 34 to 37.
Data set [3] concerns human T cell leukemia derived ATL-2 cells. Kind of data set: ATL-2 cell proliferation, WST assay. Particulars: 150 μM, 72 hours, FIG. 39. The data set is classed as cell-based. On the procedure:
Human T cell leukemia derived ATL-2 cells (provided by Dr. Maeda at the Kyoto University) were passaged (twice/week) under the condition of 37° C. and 5% CO2-95% air using an RPMI-1640 medium (Sigma, R8758-500 mL) comprising 10% fetal bovine serum (biowest, S182H-500). The ATL-2 cells were collected from a culture flask. The cells were suspended in the medium and then seeded on a 96-well microplate (3×10^3/0.05 mL/well). After culturing the cells overnight, a medium comprising the test compounds (total of 32 compounds, final concentration of 150 μM) was added (0.05 mL/well, 3 wells/test compound). After 72 hours, the cell proliferation capability for each well was measured by a WST assay (DOJINDO LABORATORIES, Cell Counting Kit-8), and the inhibition ratio for each test compound against the control (test compound-free well) was calculated.

Data set [4] relates to human breast cancer derived HCC1395 cells. Nature of the data set: HCC1395 breast cancer cell proliferation, amount of ATP (CellTiter-Glo 2.0). It counts as cell-based. The conditions noted are these: 0 to 100 μM, 72 hours; FIG. 44 left. On the procedure:
(§3) Human breast cancer derived HCC1395 cells (ATCC, CRL-2327) and HCC1806 (ATCC, CRL-2335) were cultured, collected, and seeded on a 384-well microplate (1×10^3 and 3×10^3/0.04 mL/well). After culturing the cells overnight, a medium comprising GT-11350 (0 to 100 μM) was added (0.01 mL/well). After 72 hours, the cell proliferation capability for each well against the control (test compound-free well) was calculated using the amount of ATP as an indicator, which was measured using CellTiter-Glo 2.0 (Promega, G9242).
For orientation: In ATP-based viability assays light output follows the ATP content of the culture.

Data set [5] concerns human pancreatic cancer derived AsPC-1 cells. Nature of the data set: AsPC-1 cell proliferation, WST assay. The data set is classed as cell-based. The conditions noted are these: 72 hours; for proliferation inhibiting action against AsPC-1 cells (inhibition ratio against control): 10, 30 or 100 μM, FIG. 43. The procedure: Human pancreatic cancer derived AsPC-1 cells (ECACC, 96020930) were passaged (twice/week) under the condition of 37° C. and 5% CO2-95% air using an RPMI-1640 medium (Sigma, R8758-500 ML) comprising 10% fetal bovine serum (biowest, S182H-500) and 1 mM sodium pyruvate (gibco, 11360-070). The AsPC-1 cells were collected from a culture dish using 0.05% trypsin-0.02% EDTA solution (Sigma, T4174-100 ML). The cells were suspended in the medium and then seeded on a 96-well microplate (3×10^3/0.05 mL/well). After culturing the cells overnight, a medium comprising the test compounds (total of 43 compounds, final concentration of 150 μM) was added (0.05 mL/well, 3 wells/test compound). After 72 hours, the cell proliferation capability for each well was measured by a WST assay (DOJINDO LABORATORIES, Cell Counting Kit-8), and the inhibition ratio for each test compound against the control (test compound-free well) was calculated.
A WST assay is a viable cell count measuring method, which uses water-soluble tetrazolium salt WST-8 as a coloring reagent and uses water-soluble formazan generated by reduction of WST-8 as an indicator of viable cell count. NADH produced by a dehydrogenase in a cell converts WST-8 to water-soluble formazan. Since the generated water-soluble formazan has the maximum absorbance at about 450 nm, the viable cell count is indicated by measuring the absorbance at such a wavelength region.
Human pancreatic cancer derived AsPC-1 cells (ECACC, 96020930) were cultured, collected, and seeded on a 96-well microplate (3×10^3/0.05 mL/well) in the same manner as Example 3. After culturing the cells overnight, a medium comprising the test compounds (10, 30, or 100 μM) was added (0.05 mL/well, 3 wells/test compound). After 72 hours, the cell proliferation capability for each well was measured by a WST assay (DOJINDO LABORATORIES, Cell Counting Kit-8), and the inhibition ratio for each test compound against the control (test compound-free well) was computed.

Data set [6] can be described thus: Hematocrit value and blood hemoglobin concentration in AsPC-1 cancer-bearing mice. It counts as in vivo, mouse. The conditions noted are these: day 4 from final administration, 0.1, 0.2 or 0.4 mg/day; FIG. 50. The procedure:
Blood was drawn on day 6 from the final administration from an AsPC-1 cancer-bearing mouse administered with GT-11269, GT-11309, or GT-11350 by the same protocol, and the hematocrit value was measured by the capillary method using a high speed centrifuge. The blood hemoglobin concentration was also measured using a commercially available measurement kit (BioAssay Systems, DIHB-250) (FIG. 47).
Blood was drawn on day 4 from the final administration from an AsPC-1 cancer-bearing mouse administered with GT-11350 by the same protocol, and the hematocrit value was measured by the capillary method using a high speed centrifuge. The blood hemoglobin concentration was also measured using a commercially available measurement kit (BioAssay Systems, DIHB-250) (FIG. 50).

The subject of data set [7] is human breast cancer derived HCC1806 cells. Kind of data set: HCC1806 breast cancer cell proliferation, amount of ATP (CellTiter-Glo 2.0). It counts as cell-based. Particulars: 0 to 100 μM, 72 hours; FIG. 44 right. The procedure: as §3
Data set [8] is described as follows: Body weight of AsPC-1 cancer-bearing mice given peptides. The conditions noted are these: total 0.1, 0.2 or 0.4 mg/day, twice a week for 4 weeks; FIG. 49. It counts as in vivo, mouse. The procedure: as §1, with “The compounds were administered intraperitoneally (0.1 mL/mouse, 3 to 5 mice/test compound) 3 times daily (one hour interval, a total of 0.2 mg/day), 3 times a week for 2 weeks.” left out
In the same manner as Example 5, human pancreatic cancer derived AsPC-1 cells were transplanted subcutaneously to the right side on the back of a 6-week-old male nude mouse (SLC, BALB/cSlc-nu/nu) (5×10^6/0.1 mL/mouse). The length (L) and width (W) of the tumor were measured using a digital caliper. When the tumor volume (V) calculated from the formula V=L×W^2/2 reached about 150 to 200 mm^3, the mice were separated into groups and administered with test compounds (GT-11269, GT-11309, and GT-11350). […]

Data set [9] relates to human leukemia derived UT-7 cells. Kind of data set: Epo dependent UT-7 cell proliferation, WST assay. The data set is classed as cell-based. The conditions noted are these: Epo 1 U/mL, 4 days; GT-11309 1 to 100 μM, antibodies 1 to 100 μg/mL; FIG. 42. On the procedure:
Human leukemia derived UT-7 cells (provided by Dr. Fujita at the Hokkaido University) were passaged (twice/week) under the condition of 37° C. and 5% CO2-95% air using a D-MEM medium (Sigma, D5796-500 ML) comprising recombinant human erythropoietin (Epo, 2 U/mL) and 10% fetal bovine serum (biowest, S182-H-500), and cultured for a total of 9 weeks. The Epo treated UT-7 cells were washed three times and seeded on a 96-well microplate (1×10^4/well). An anti-Epo monoclonal antibody (clone R6, provided by Dr. Masuda at the Kyoto University, 1 to 100 μg/mL), anti-EpoR monoclonal antibody (clone 713210, R&D Systems, MAB3073, 1 to 100 μg/mL) or GT-11309 (1 to 100 μM), in the presence of Epo (0 to 10 U/mL) or Epo (1 U/mL), was added. After 4 days of culture, the cell proliferation capability for each well was measured as absorbance at 450 nm by a WST assay (DOJINDO LABORATORIES, Cell Counting Kit-8).

For the compound “Ac-SCH(phenethylglycine)GPLTWVCK-NH2 (Ac-SCH[phenethylglycine]GPLTWVCK-NH2; disulfide 2-11 (inferred)) [GT-11263]”, the “antitumor effect (relative tumor volume)” value in data set [1] (3 times daily) is reported as “potent antitumor effect”.
Regarding “Ac-SCHYGPLT(2-quinolylalanine)VCK-NH2 (Ac-SCHYGPLT[2‑quinolylalanine]VCK-NH2; disulfide 2-11 (inferred)) [GT-11308]”, in [2], the “HepG2 cell killing effect compared with YS12 (Trypan blue positive cells per 1 mm^2)” value was “equivalent or greater than that of YS12”. Further, in data set [3], the “proliferation inhibiting action on ATL-2 cells (inhibition ratio against control)” value is “potent proliferation inhibiting action”.
Take “Ac-SCHYGPMT(2-benzothiazolylalanine)VCK-NH2 [GT-11350]”: in data set [4], the “proliferation suppressing capability against breast cancer cell line HCC1395” value was “exhibited proliferation suppressing capability”. Besides, the “proliferation inhibiting action against AsPC-1 cells (inhibition ratio against control)” value in data set [5] is “potent proliferation inhibiting action”. Besides, in [6], the blood hemoglobin concentration result is “none of the doses had an effect” and the hematocrit value entry was “none of the doses had an effect”. Also, the “anti-tumor effect, 3 times daily versus once daily” value in data set [1] (0.2 mg/day, 3 times daily or once daily, twice a week for 4 weeks, FIG. 51) was “same anti-tumor effect for both 3 times daily and once daily administration methods”. Moreover, the “anti-tumor effect (relative tumor volume) by dose” value in [1] (3 times daily, total 0.1, 0.2 or 0.4 mg/day, twice a week for 4 weeks, FIG. 49) was “dose dependent anti-tumor effect”. Also, the “proliferation suppressing capability against breast cancer cell line HCC1806” value in [7] is recorded as “exhibited proliferation suppressing capability”. Besides, in data set [8], the body weight result was “not affected”.
As to “Ac-SCHYGPLT(2-benzothiazolylalanine)VCK-NH2 (Ac-SCHYGPLT[Ala(benzothiazol-2-yl)]VCK-NH2; disulfide 2-11 (inferred)) [GT-11309]”, the “Epo dependent cancer cell proliferation (UT-7)” value in data set [9] is reported as “suppressed Epo dependent cancer cell proliferation”. In addition, the “HepG2 cell killing effect compared with YS12 (Trypan blue positive cells per 1 mm^2)” value in [2] is “equivalent or greater than that of YS12”. Besides, the “proliferation inhibiting action against AsPC-1 cells (inhibition ratio against control)” value in data set [5] is on record as “potent proliferation inhibiting action”. The “antitumor effect (relative tumor volume)” value in [1] (3 times daily) is “potent and had an early manifestation of effect”. In data set [3], the “proliferation inhibiting action on ATL-2 cells (inhibition ratio against control)” value is given as “potent proliferation inhibiting action”.
In the case of “(propionyl)-SCHFGPLTWVCK-NH2 (Propionyl-SCHFGPLTWVCK-NH2; disulfide 2-11 (inferred)) [GT-11257]”, in data set [5] (150 μM, FIG. 38), the “proliferation inhibiting action on AsPC-1 cells (inhibition ratio against control)” value was “potent proliferation inhibiting action”.
For the compound `CSCC[C@@H]1NC(=O)[C@@H]2CCCN2C(=O)CNC(=O)[C@H](Cc2ccccc2)NC(=O)[C@H](Cc2c[nH]cn2)NC(=O)[C@@H](NC(=O)[C@H](CO)NC(C)=O)CSSC[C@@H](C(=O)N[C@@H](CCCCN)C(N)=O)NC(=O)[C@H](C(C)C)NC(=O)[C@H](Cc2c[nH]c3ccccc23)NC(=O)[C@H]([C@@H](C)O)NC1=O` [GT-11269, Ac-SCHFGPMTWVCK-NH2] (Ac-SCHFGPMTWVCK-NH2; disulfide 2-11), the “proliferation inhibiting action against AsPC-1 cells (inhibition ratio against control)” value in [5] was “potent proliferation inhibiting action”. Besides, the “antitumor effect (relative tumor volume)” value in data set [1] (3 times daily) was “potent and had an early manifestation of effect”. For the same compound, the “proliferation inhibiting action on ATL-2 cells (inhibition ratio against control)” value in data set [3] was “potent proliferation inhibiting action”.
